Experimental data: patent US7615244B2, “Glycopeptide and peptide having a kokumi taste imparting function, and method of imparting the kokumi taste to foods” (Ajinomoto Co., Inc., priority 2003, dated 2009)
Marks after values point to notes of the source that are not given here.

What was measured:
[1] = Organoleptic evaluation of beef extract solution, paired comparison test; design: key to Kokumi taste vs control (mark): Δ: Equal or inferior in the kokumi taste to the control; O: Stronger in the kokumi taste than the control; OO: Remarkably stronger in the kokumi taste than the control; settings: for Kokumi taste vs control (mark): 14 panelists
Experimental: In order to verify a taste improving function for a commercially available beef extract (manufactured by Bordon), the three glycopeptides and peptide were each added in an amount of 10 ppb by weight to a beef extract solution formulated according to the mixing ratio shown in the following Table 6, and then an organoleptic evaluation was performed in the same manner as in Example 1. Each resulting solution was subjected to organoleptic evaluation by 16 taste panelists according to a paired comparison test, using the non-added beef extract solution as the control. […]
In order to verify a taste improving function for a commercially available beef extract (manufactured by Bordon) in the same manner as in the organoleptic evaluation of Example 1, the glycopeptides and peptides listed in the following Table 15, were each added in an amount of 10 ppb, 1 ppm, or 100 ppm by weight to beef extract solutions formulated according to the mixing ratio shown in Table 6 above. Each resulting solution was subjected to organoleptic evaluation by 14 taste panelists according to a paired comparison test, using the non-added beef extract solution as the control.

[2] = Organoleptic evaluation of chicken consommé soup, paired comparison test by taste panelists; settings: for Panelists choosing the sample as the one with a stronger kokumi taste: vs non-added soup, n = 16
Experimental: 2 g of a commercially available chicken consommé soup (manufactured by Ajinomoto Co., Inc.) was added to 100 mL of water to prepare a chicken consommé soup, and then each of the fractions was added to the chicken consommé soup. […] These two fractions were each again fractionated by reversed phase HPLC (“Carbon-500” manufactured by Tosoh Corporation). The following conditions were used to obtain two peaks at 44.8 minutes and 46.6 minutes. For the fractionation, two solvents A and B were used. Solvent A was a 0.05% by volume trifluoroacetic acid (TFA) aqueous solution, and Solvent B was a 0.05% by volume TFA 50% by volume acetonitrile aqueous solution. The column was equilibrated with Solvent A. After injecting a sample, the proportion of Solvent B was increased linearly to 100% in 167 min. The fractionated two peaks were analyzed with an LC-MS/MS (liquid chromatography-tandem mass spectrometry), to confirm that the former peak had fragments, that is, [M+H]^+=m/z 1640, 1494, 1478, 1362, 1332, 1316, 1200, 1184, 1038, 876, 819, 673, and 470, and that the latter peak had fragments, that is, [M+H]^+=m/z 1478, 1346, 1332, 1316, 1200, 1184, 1038, 876, 819, 673, and 470. Further, the former and latter peaks were analyzed by some known methods of analysis such as NMR, a peptide sequencer, an enzymatic decomposition treatment, and the like (R.Takahashi, “Biochemical Experiment Methods 23: Method for Studying Glycoprotein Sugar Chain,” published by Gakkai Shuppan Center, 1989), to confirm that the peaks were due to the glycopeptides having the structures represented by Sequence formulas (I) (SEQ ID NO: 1) and (II) (SEQ ID NO: 1), respectively.
In order to confirm the kokumi taste imparting function and the threshold value of the glycopeptides and the peptide represented by Sequence formulas (I) to (III) (SEQ ID NO: 1) (hereinafter, the glycopeptides and the peptide represented by Sequence formulas (I) to (III) may also be referred to as Glycopeptide I, Glycopeptide II, and Peptide III, respectively), Glycopeptide I and Glycopeptide II were each added to a chicken consommé soup in such that the concentration thereof would be 0.1 ppb to 1.0 ppm by weight upon eating, and Peptide III was added to the chicken consommé soup in such that the concentration thereof would be 0.1 ppb to 100 ppm by weight upon eating. As a control, a non-added chicken consommé soup was prepared. For each of the three glycopeptides and peptide, organoleptic evaluation was carried out by 16 taste panelists according to a paired comparison test (the panelists should choose one with a stronger kokumi taste). In the above organoleptic evaluation, there was a significant difference in the effect caused by adding Glycopeptide I or II or Peptide III in the case where the concentration thereof was 1 ppb by weight or more upon eating. Therefore, the lower limit of the threshold value was set to 1 ppb by weight.

[3] = Organoleptic evaluation of Mentsuyu, paired comparison test; settings: added 1 ppb by weight; vs non-added; n = 16
Excerpt: In order to verify a taste improving function for “Mentsuyu” (a soup for Japanese noodle) in the same manner as in the organoleptic evaluation of Example 1, the three glycopeptides and peptide were each added in an amount of 1 ppb by weight to Mentsuyu prepared according to the formulation shown in the following Table 2. Each resulting solution was subjected to organoleptic evaluation by 16 taste panelists according to a paired comparison test, using non-added Mentsuyu as the control.
In order to verify the taste improving function of a liquid comprising enzymatically decomposed wheat gluten, that is, a seasoning containing the three glycopeptides and peptide, for Mentsuyu, the seasoning comprising enzymatically decomposed wheat gluten (that is, the decolorized liquid of Example 1 from which the activated carbon had been removed) was added in an amount of 0.1% by volume to Mentsuyu prepared according to the formulation shown in Table 2, and then an organoleptic evaluation was performed in the same manner as in Example 1. Organoleptic evaluation was carried out by 20 taste panelists according to a paired comparison test, using the non-added Mentsuyu as the control.

[4] = Organoleptic evaluation of cheese sauce, paired comparison test; settings: added 1 ppm by weight; vs non-added; n = 14
Experimental: In order to verify a taste improving function for cheese sauce, the three glycopeptides and peptide were each added in an amount of 1 ppm by weight to a cheese sauce prepared according to the formulation shown in the following Table 4, and then an organoleptic evaluation was performed in the same manner as in Example 1. Each of the sauces added with one of the three glycopeptides and peptide was subjected to organoleptic evaluation by 14 taste panelists according to a paired comparison test, using non-added cheese sauce as the control.
In order to verify the taste improving function of the liquid comprising enzymatically decomposed wheat gluten, that is, a seasoning containing the three glycopeptides and peptide, for cheese sauce, the seasoning comprising enzymatically decomposed wheat gluten (that is, the powdered seasoning of Example 1 formed from the decolorized liquid from which the activated carbon had been removed) was added in an amount of 0.05% by weight to a cheese sauce prepared according to the formulation shown in Table 4, and then an organoleptic evaluation was performed in the same manner as in Example 1. Organoleptic evaluation was carried out by 20 taste panelists according to a paired comparison test, using the non-added cheese sauce as the control.

Q: For Asn-His, which “Kokumi taste vs control (mark)” value ([1]; added 1 ppm by weight) is on record?
A: Its value is “◯”.

Q: And the “Kokumi taste vs control (mark)” value ([1]; added 10 ppb by weight)?
A: Its value is “◯”.

Q: And the “Kokumi taste vs control (mark)” value ([1]; added 100 ppm by weight)?
A: The value was “◯◯”.

Q: With Asn-His-Thr as the substance, how does the “Kokumi taste vs control (mark)” value ([1]; added 1 ppm by weight) read?
A: Its value is “◯◯”.

Q: What about the “Kokumi taste vs control (mark)” value ([1]; added 10 ppb by weight) of the same substance?
A: Its value is “◯”.

Q: And the “Kokumi taste vs control (mark)” value ([1]; added 100 ppm by weight)?
A: The value was “◯◯”.

Q: With His-Ser [reference compound] as the substance, how does the “Kokumi taste vs control (mark)” value ([1]; added 1 ppm by weight) read?
A: Its value is “Δ”.

Q: And the “Kokumi taste vs control (mark)” value ([1]; added 10 ppb by weight)?
A: The value was “Δ”.

Q: What about the “Kokumi taste vs control (mark)” value ([1]; added 100 ppm by weight) of the same substance?
A: The value was “Δ”.

Q: For Val-Asn [reference compound], which “Kokumi taste vs control (mark)” value ([1]; added 1 ppm by weight) is on record?
A: The value was “Δ”.

Q: What about the “Kokumi taste vs control (mark)” value ([1]; added 10 ppb by weight) of the same substance?
A: The value was “Δ”.

Q: What about the “Kokumi taste vs control (mark)” value ([1]; added 100 ppm by weight) of the same substance?
A: The value was “Δ”.

Q: Which “Kokumi taste vs control (mark)” value ([1]; added 1 ppm by weight) does the source give for Val-Asn-His here?
A: The value was “◯◯”.

Q: And the “Kokumi taste vs control (mark)” value ([1]; added 10 ppb by weight)?
A: Its value is “◯”.

Q: What about the “Kokumi taste vs control (mark)” value ([1]; added 100 ppm by weight) of the same substance?
A: The value was “◯◯”.

Q: Which results are given for “Val-Asn-His-Thr (VNHT; printed: Val-Asn-His-Thr) [Peptide III]”?
A: Panelists choosing the sample as the one with a stronger kokumi taste ([2]; amount added 0.1 ppb): 9; Panelists choosing the sample as the one with a stronger kokumi taste ([2]; amount added 1.0 ppb): 13*; Panelists choosing the sample as the one with a stronger kokumi taste ([2]; amount added 1.0 ppm): 16***; Panelists choosing the sample as the one with a stronger kokumi taste ([2]; amount added 10 ppb): 14**; Panelists choosing the sample as the one with a stronger kokumi taste ([2]; amount added 100 ppm): 16***; Lower limit of the threshold value (kokumi taste imparting function) ([2]; concentration upon eating giving a significant difference vs non-added soup): 1 ppb by weight; Stronger kokumi taste (panelists) [3]: 13*; Stronger kokumi taste (panelists) [4]: 12*; Kokumi taste vs control (mark) ([1]; added 1 ppm by weight): ◯◯; Kokumi taste vs control (mark) ([1]; added 10 ppb by weight): ◯◯; Stronger kokumi taste (panelists) ([1]; added 10 ppb by weight, vs non-added, n = 16): 13*; Kokumi taste vs control (mark) ([1]; added 100 ppm by weight): ◯◯

Q: With Val-Gln [reference compound] as the substance, how does the “Kokumi taste vs control (mark)” value ([1]; added 1 ppm by weight) read?
A: Its value is “Δ”.

Q: What about the “Kokumi taste vs control (mark)” value ([1]; added 10 ppb by weight) of the same substance?
A: The value was “Δ”.

Q: And the “Kokumi taste vs control (mark)” value ([1]; added 100 ppm by weight)?
A: Its value is “Δ”.
